# Article PMC9504950, “In Vitro and In Silico Analyses of New Cinnamid and Rosmarinic Acid-Derived Compounds Biosynthesized in Escherichia coli as Leishmania amazonensis Arginase Inhibitors” (Pathogens, 2022)
# Where “and” joins values, the source holds several entries; their conditions need not be identical. Identical values can stand only once. Like-named read-outs stand apart in the source and are kept apart here.
# What was measured:
# [1] = molecular target: T1, L. amazonensis arginase (L-ARG) (Leishmania amazonensis, UniProt O96394); experiment: Recombinant L. amazonensis arginase (L-ARG) inhibition, IC50; assay type: biochemical; conditions: for IC50: mean ± SEM; for fold decrease of enzyme inhibition relative to compound 4: compared with compound 4
# Procedure: (§1) Recombinant L-ARG was expressed and purified as previously described. A stock solution of 70 mM was prepared in DMSO and was stored at −20 °C for each compound just before the experiment. The concentration that inhibited 50% of the catalytic activity of the enzyme (IC50) was determined using an inhibitor concentration from 200 μM to 0.05 μM; the concentrations were obtained via a serial dilution in water (1:4). The kinetics were determined using three concentrations of the substrate and three concentrations of inhibitor, as previously described. Two independent experiments were performed in triplicate with a coefficient of nonlinear regression R^2 ≥ 0.85. The sigmoidal model (log IC50) was used to determine the IC50 using GraphPad Prism 7 software for Windows (San Diego, CA, USA).
# [2] = molecular target: T1, L. amazonensis arginase (L-ARG); experiment: Kinetics of arginase inhibition (Dixon and Cornish-Bowden plots); assay type: biochemical; conditions: for Mechanism of Inhibition: Dixon and Cornish-Bowden plots; for Ki: Dixon plots, L-arginine 100, 50 and 25 mM
# Procedure: The enzyme kinetics were performed to determine the mechanism of inhibition and the dissociation constant (Ki) of the compounds via the simultaneous analysis of the Dixon and Cornish-Bowden plots. The Ki inhibition constants (complex EI), which refer to the equilibriums established between the […] in the presence of an inhibitor (I), were determined (Table 1).
# as §1
# Figure 1 Kinetics of the arginase inhibition by compounds 2–4, 7, and 9. The mechanism of action was determined by an analysis of the Dixon (A) and Cornish-Bowden plots (B); the Ki constant was measured using Dixon plots by calculating the X values at the intersection point of the lines. […] Each drawn point represents the mean of three independent experiments (n = 3) performed in duplicate.
# [3] = molecular target: T1, L. amazonensis arginase (L-ARG); conditions: cited from earlier work
# [4] = system: promastigotes and amastigotes of L. amazonensis; conditions: cited from earlier work
# L. amazonensis = system: L. amazonensis; set-up: method as in PMID 24906989; conditions: BALB/c mice, cutaneous leishmaniasis; cited from earlier work
# [5] = recombinant L-ARG, read-out: IC50
smiles,measurement,setting,value
O=C(/C=C/c1ccc(O)cc1)O[C@H](Cc1ccccc1)C(=O)O [Compound 1],IC50,[1]; recombinant L-ARG,Inactive
O=C(CCc1ccc(O)c(O)c1)O[C@H](Cc1ccccc1)C(=O)O [Compound 2],IC50,[1]; [5],2.8 ± 0.9 µM
same,Mechanism of Inhibition,[2],Noncompetitive
same,Ki,[2],5.7 ± 0.7 µM
O=C(CCc1ccc(O)c(O)c1)O[C@H](Cc1ccc(O)c(O)c1)C(=O)O [Compound 3],IC50,[1]; [5],3 ± 0.2 µM
same,Mechanism of Inhibition,[2],Noncompetitive
same,Ki,[2],3.9 ± 0.4 µM
O=C(CCc1ccc(O)c(O)c1)O[C@H](Cc1ccc(O)cc1)C(=O)O [Compound 4],IC50,[1]; [5],1.9 ± 0.7 µM
same,Mechanism of Inhibition,[2],Noncompetitive
same,Ki,[2],2 ± 0.6 µM
O=C(CCc1ccc(O)cc1)O[C@H](Cc1ccc(O)cc1)C(=O)O [Compound 5],fold decrease of enzyme inhibition relative to compound 4,[1],at least 100 times
same,L-ARG inhibition (in words),[1]; recombinant L-ARG,weak inhibition
same,IC50,[1]; [5],> 200 µM
O=C(CCc1ccc(O)cc1)O[C@H](Cc1ccccc1)C(=O)O [Compound 6],IC50,[1]; recombinant L-ARG,Inactive
O=C(O)CC(OC(=O)/C=C/c1ccc(O)c(O)c1)C(=O)O (stereo not shown) [Compound 7],fold decrease of enzyme inhibition relative to compound 4,[1],approximately 20 times
same,IC50,[1]; [5],36.2 µM and 36 µM
same,Mechanism of Inhibition,[2],Noncompetitive
same,Ki,[2],74 ± 8 µM
O=C(/C=C/c1ccc(O)cc1)Nc1cc(Cl)ccc1C(=O)O [Compound 8],IC50,[1]; recombinant L-ARG,Inactive
O=C(/C=C/c1ccc(O)c(O)c1)Nc1cc(F)c(F)cc1C(=O)O [Compound 9],IC50,[1]; [5],5.5 ± 0.5 µM
same,Mechanism of Inhibition,[2],Competitive
same,Ki,[2],4.6 ± 1.7 µM
O=C(CCc1ccc(O)cc1)Nc1cc(Cl)ccc1C(=O)O [Compound 10],IC50,[1]; recombinant L-ARG,Inactive
O=C(O)/C=C/c1ccc(O)c(O)c1 [caffeic acid],L-ARG inhibition (in words),[3],inhibitory profile
same,activity against the promastigotes and amastigotes of L. amazonensis,[4],active
same,lesion size and parasite burden,L. amazonensis,effective in reducing the lesion size and parasite burden
O=C(/C=C/c1ccc(O)c(O)c1)O[C@@H]1C[C@](O)(C(=O)O)C[C@@H](O)[C@H]1O [chlorogenic acid],activity against the promastigotes and amastigotes of L. amazonensis,[4],active
COc1cc(/C=C/C(=O)O)ccc1O [ferulic acid],activity against the promastigotes and amastigotes of L. amazonensis,[4],active
same,lesion size and parasite burden,L. amazonensis,effective in reducing the lesion size and parasite burden
O=C(/C=C/c1ccc(O)c(O)c1)O[C@H](Cc1ccc(O)c(O)c1)C(=O)O [rosmarinic acid],L-ARG inhibition (in words),[3],inhibitory profile
same,activity against the promastigotes and amastigotes of L. amazonensis,[4],active
same,lesion size and parasite burden,L. amazonensis,effective in reducing the lesion size and parasite burden
C[C@@H]1O[C@@H](O[C@@H]2[C@@H](O)[C@H](OCCc3ccc(O)c(O)c3)O[C@H](CO)[C@H]2OC(=O)/C=C/c2ccc(O)c(O)c2)[C@H](O)[C@H](O)[C@H]1O [verbascoside],L-ARG inhibition (in words),[3],inhibits
same,activity against promastigote and intracellular amastigotes of the parasite,[4],active
